Our source for the Ki values is patent publication US20090099212A1, “A3 ADENOSINE RECEPTOR ANTAGONISTS” (priority 2007, published 2009).

Broadly, the Ki is a measure of affinity in units of concentration, obtained from inhibition or displacement.

The target in one experiment is T1, A3 adenosine receptor (Homo sapiens, UniProt P0DMS8).
T1 construct: expressed in transfected cells; host or cells: HEK-293 or CHO cells (HEK-A3 or CHO-A3), membranes
T1 sequence (P0DMS8 1-318): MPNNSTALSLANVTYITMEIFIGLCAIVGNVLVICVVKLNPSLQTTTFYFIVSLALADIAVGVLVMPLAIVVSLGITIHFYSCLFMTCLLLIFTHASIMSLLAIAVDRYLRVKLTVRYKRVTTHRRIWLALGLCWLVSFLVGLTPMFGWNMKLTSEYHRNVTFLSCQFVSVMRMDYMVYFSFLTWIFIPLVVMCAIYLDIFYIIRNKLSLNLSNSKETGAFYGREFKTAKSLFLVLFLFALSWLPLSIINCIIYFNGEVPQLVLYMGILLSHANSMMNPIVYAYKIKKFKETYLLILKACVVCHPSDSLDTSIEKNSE
Kind of experiment: Radioligand binding competition, A3 AdoR (125I-AB-MECA), membranes of HEK-A3 or CHO-A3 cells. How it is done: The cDNAs for human A1, A2A, A2B or A3 AdoRs were prepared by RT-PCR from total RNA of human cells or tissues and sequenced on both strands. The expression vector containing each of these cDNAs and a second vector containing a neomycin or puromycin-resistance gene were introduced to HEK-293 or CHO cells by Lipofectin-Plus (Life Technology). Colonies were selected by growing transfected cells in the presence of neomycin or puromycin. Stably transfected cells were maintained in Dulbecco's modified Eagle's medium (DMEM) or F-12 medium with 10% fetal bovine serum, 100 μg/ml penicillin, 100 μg/ml streptomycin and appropriate concentrations of neomycin or puromycin. These stably transfected cells were referred to as HEK-“AdoR” or CHO-“AdoR” depending on the receptors that they express. For example, cells that were transfected with A3 AdoRs were referred to as HEK-A3 or CHO-A3.
Monolayers of transfected cells were washed with phosphate buffered saline (PBS) and harvested in a buffer containing 10 mM HEPES (pH 7.4), 10 mM EDTA and protease inhibitors. The cells were homogenized in polytron for 1 minute at setting 4 and centrifuged at 29000 g for 15 minutes at 4° C. The cell pellets were washed with a buffer containing 10 mM HEPES (pH7.4), 1 mM EDTA and protease inhibitors, and were resuspended in the same buffer supplemented with 10% sucrose. Frozen aliquots were kept at −80° C.
The affinities of compounds for A1, A2A, A2B or A3 AdoRs were determined in competition studies using radioligands such as ^3H-CPX (A1 antagonist), or ^3H-CCPA (A1 agonist), ^3H-ZM241385 (A2A antagonist) or ^3H-CGS21680 (A2A agonist), ^3H-ZM241385 (A2B antagonist) or ^125I-AB-MECA (A3 agonist) and membranes of corresponding transfected cells. For example, to determine the affinity for A3 AdoRs, the competition assays were started by mixing 0.2 nM ^125I-AB-MECA with various concentrations of test compounds and 25 ug membrane proteins of HEK-A3 or CHO-A3 in TEM buffer (50 mM Tris, 1 mM EDTA and 10 mM MgCl2) supplemented with 1 U/ml adenosine deaminase. The assays were incubated for 90 minutes, stopped by filtration onto GF/B filter plates using Packard Harvester and washed four times with ice-cold TM buffer (10 mM Tris, 1 mM MgCl2, pH 7.4). The amounts of radioligands that bound to the GF/B filter plates were determined by scintillation counting. Nonspecific binding was determined in the presence of 10 μM R-PIA (phenylisopropyladenosine) or 1 μM IB-MECA. Bmax and KD values were calculated using GraphPad software.

For another experiment, the target named is T2, A2A adenosine receptor (Homo sapiens, UniProt P29274).
T2 construct: expressed in transfected cells; host or cells: HEK-293 or CHO cells, membranes
As to the kind of experiment: Radioligand binding competition, A2A AdoR (3H-ZM241385 or 3H-CGS21680), membranes of transfected cells. Particulars: Table 2. The protocol:
(§1) The cDNAs for human A1, A2A, A2B or A3 AdoRs were prepared by RT-PCR from total RNA of human cells or tissues and sequenced on both strands. The expression vector containing each of these cDNAs and a second vector containing a neomycin or puromycin-resistance gene were introduced to HEK-293 or CHO cells by Lipofectin-Plus (Life Technology). Colonies were selected by growing transfected cells in the presence of neomycin or puromycin. Stably transfected cells were maintained in Dulbecco's modified Eagle's medium (DMEM) or F-12 medium with 10% fetal bovine serum, 100 μg/ml penicillin, 100 μg/ml streptomycin and appropriate concentrations of neomycin or puromycin. […]
(§2) The affinities of compounds for A1, A2A, A2B or A3 AdoRs were determined in competition studies using radioligands such as ^3H-CPX (A1 antagonist), or ^3H-CCPA (A1 agonist), ^3H-ZM241385 (A2A antagonist) or ^3H-CGS21680 (A2A agonist), ^3H-ZM241385 (A2B antagonist) or ^125I-AB-MECA (A3 agonist) and membranes of corresponding transfected cells. […] The amounts of radioligands that bound to the GF/B filter plates were determined by scintillation counting. Nonspecific binding was determined in the presence of 10 μM R-PIA (phenylisopropyladenosine) or 1 μM IB-MECA. Bmax and KD values were calculated using GraphPad software.

A further experiment deals with T3, A1 adenosine receptor (Homo sapiens, UniProt P30542).
T3 construct: expressed in transfected cells; host or cells: HEK-293 or CHO cells, membranes
T3 sequence (P30542 1-326): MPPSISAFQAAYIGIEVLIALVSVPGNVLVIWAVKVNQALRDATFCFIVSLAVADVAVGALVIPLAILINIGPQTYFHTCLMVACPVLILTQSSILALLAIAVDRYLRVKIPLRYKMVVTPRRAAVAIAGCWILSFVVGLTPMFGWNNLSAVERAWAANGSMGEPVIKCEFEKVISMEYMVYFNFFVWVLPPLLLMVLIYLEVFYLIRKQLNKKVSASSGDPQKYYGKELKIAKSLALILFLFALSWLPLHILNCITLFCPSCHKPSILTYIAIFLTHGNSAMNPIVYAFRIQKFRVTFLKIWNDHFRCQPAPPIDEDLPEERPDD
As to the kind of experiment: Radioligand binding competition, A1 AdoR (3H-CPX or 3H-CCPA), membranes of transfected cells. The following applies: Table 2. The protocol:
as §1, §2

Setting [1] is: Table 1, 0.2 nM 125I-AB-MECA, HEK-A3 or CHO-A3 membranes.
[2] abbreviates: Table 2, 125I-AB-MECA competition.

T2 sequence (P29274 whole entry): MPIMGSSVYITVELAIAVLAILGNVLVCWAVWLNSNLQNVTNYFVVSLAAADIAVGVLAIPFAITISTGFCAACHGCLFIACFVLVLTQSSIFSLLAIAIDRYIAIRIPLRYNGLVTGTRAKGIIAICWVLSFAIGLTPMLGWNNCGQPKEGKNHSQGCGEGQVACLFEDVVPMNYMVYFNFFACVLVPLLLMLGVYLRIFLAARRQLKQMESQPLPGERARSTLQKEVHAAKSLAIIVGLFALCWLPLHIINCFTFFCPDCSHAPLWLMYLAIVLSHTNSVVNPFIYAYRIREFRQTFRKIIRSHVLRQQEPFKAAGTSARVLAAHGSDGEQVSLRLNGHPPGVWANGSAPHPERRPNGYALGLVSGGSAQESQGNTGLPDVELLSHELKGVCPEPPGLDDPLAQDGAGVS

As for `CCn1c(-n2cccn2)nc2c(N)nc(NCc3ccccc3)nc21` [(6-amino-9-ethyl-8-pyrazolylpurin-2-yl)benzylamine], affinity at A3 adenosine receptor (setting [1]) was put at a Ki of 7 nM. The same measure, in the same setting: next, `CCn1c(-n2cc(-c3cccc(C(F)(F)F)c3)cn2)nc2c(N)nc(NCc3ccccc3)nc21` [(6-amino-9-ethyl-8-{4-[3-(trifluoromethyl)phenyl]pyrazolyl}purin-2-yl)benzylamine]: 1480 nM. Same read-out and setting: next, `CCn1c(-n2cc(C)cn2)nc2c(NC(=O)C(C)(C)C)nc(NCc3ccccc3)nc21` [N-{9-ethyl-8-(4-methylpyrazolyl)-2-[benzylamino]purin-6-yl}-2,2-dimethylpropanamide]: 18.6 nM. Turning to `CCn1c(-n2cc(C)cn2)nc2c(N)nc(NCc3ccccc3)nc21` [[6-amino-9-ethyl-8-(4-methylpyrazolyl)purin-2-yl]benzylamine], the Ki was 2 nM at A3 adenosine receptor (setting [1]), 2040 nM on A2A adenosine receptor and 225 nM on A1 adenosine receptor.

Take “(6-amino-9-propyl-8-pyrazolylpurin-2-yl)(2-phenylethyl)amine”: the affinity on A3 adenosine receptor (setting [1]), expressed as Ki, was 52 nM. On the same count and under the same terms, in the case of “(6-amino-9-propyl-8-pyrazolylpurin-2-yl)[2-(2,5-dimethoxyphenyl)ethyl]amine” it was 112 nM; in that of “(6-amino-9-propyl-8-pyrazolylpurin-2-yl)[2-(3-fluorophenyl)ethyl]amine”, 82 nM. Same read-out and setting: in the case of “(6-amino-9-propyl-8-pyrazolylpurin-2-yl)[2-(4-fluorophenyl)ethyl]amine” it was 210 nM. The molecule “((1S)-1-phenylethyl)[6-amino-8-(4-methylpyrazolyl)-9-propylpurin-2-yl]amine” yielded a Ki on A3 adenosine receptor (setting [2]) of 0.9 nM. Take “N-{2-[(2-phenylethyl)amino]-9-propyl-8-pyrazolylpurin-6-yl}[3-(trifluoromethyl)phenyl]carboxamide”: the Ki on A3 adenosine receptor (setting [1]) was 910 nM. The same measure, in the same setting: next, “N-{2-[(2-phenylethyl)amino]-9-propyl-8-pyrazolylpurin-6-yl}[4-(trifluoromethyl)phenyl]carboxamide”: 3120 nM.

On to “N-{9-ethyl-2-[benzylamino]-8-pyrazolylpurin-6-yl}-2-methoxyacetamide”, for which the values for the Ki at A3 adenosine receptor (setting [1]), at A3 adenosine receptor (setting [2]) and at A1 adenosine receptor were 3 nM, 3 nM and 3950 nM, respectively.
